What was measured:
[1] = target: T1, recombinant form of Glutaminase 1 (GAC) (Homo sapiens, UniProt O94925); experiment: Recombinant Enzyme Assay (no preincubation); type: biochemical; conditions: read-out: GAC Delta N2 IC50 no preinc;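 also: GDH-coupled GAC activity read as absorbance at 340 nm in kinetic mode over 15 min at 20 °C, slopes compared with a DMSO-only control, lower slope means inhibition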
T1 sequence (O94925 137-598 isoform O94925-3 limits assumed): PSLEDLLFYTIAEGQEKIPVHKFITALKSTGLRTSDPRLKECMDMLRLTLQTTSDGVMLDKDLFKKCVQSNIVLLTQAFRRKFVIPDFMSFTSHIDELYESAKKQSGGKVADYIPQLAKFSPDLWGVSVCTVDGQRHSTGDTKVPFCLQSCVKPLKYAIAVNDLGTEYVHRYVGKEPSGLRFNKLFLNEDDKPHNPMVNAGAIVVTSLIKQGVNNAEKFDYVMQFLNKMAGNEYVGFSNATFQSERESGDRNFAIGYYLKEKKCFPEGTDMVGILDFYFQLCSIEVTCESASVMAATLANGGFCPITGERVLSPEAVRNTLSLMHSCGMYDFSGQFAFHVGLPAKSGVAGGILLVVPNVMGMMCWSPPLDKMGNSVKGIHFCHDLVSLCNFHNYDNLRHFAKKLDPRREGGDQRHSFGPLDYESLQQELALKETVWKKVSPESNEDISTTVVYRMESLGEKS
Protocol: Compounds were assessed for their ability to inhibit the enzymatic activity of a recombinant form of Glutaminase 1 (GAC) using a biochemical assay that couples the production of glutamate (liberated by GAC) to glutamate dehydrogenase (GDH) and measuring the change in absorbance for the reduction of NAD^+ to NADH. […] Enzymatic reaction was started with the addition of 50 μL of enzyme solution (50 mM Tris-HCl pH 8.0, 0.2 mM EDTA, 150 mM K2HPO4, 0.1 mg/ml BSA, 1 mM DTT, 10 ppm antifoam, 4 units/ml GDH, 4 mM adenosine diphosphate, and 4 nM GAC) and read in a Molecular Devices M5 plate reader at 20° C. The plate reader was configured to read absorbance (λ=340 nm) in kinetic mode for 15 minutes. Data was recorded as milli-absorbance units per minute and slopes were compared to a control compound and a DMSO-only control on the same plate. Compounds with slopes less than the DMSO control were considered inhibitors and plate variability was assessed using the control compound.

[2] = target: T1, recombinant form of Glutaminase 1 (GAC); experiment: Recombinant Enzyme Assay - Time Dependence (60 min preincubation); type: biochemical; conditions: read-out: GAC Delta N2 IC50 60 min preinc
Summary of the method: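 Enzyme and compound preincubated 60 min at 20° C; reaction started with substrate buffer (50 mM Tris-HCl pH 8.0, 150 mM K2HPO4, 1 mM DTT, 20 mM L-glutamine, 2 mM NAD^+). NADH formation followed at 340 nm in kinetic mode for 15 min at 20° C; slopes (mAU/min) compared with DMSO and control-compound wells.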

P493-6 (myc "on") cells = experiment: Cell Proliferation Assay; type: cell-based; conditions: P493-6, 72 h, read-out: Cell prolif P493 72 h IC50, P493 cells, 72 h
Summary of the method: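 Read-out: either Cell Titer Glo or Guava Viacount flow analysis after 72 h compound treatment of myc-on P493-6 cells (10,000/well, RPMI with 10% FBS) at 37 °C. DMSO held at 0.5% final.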

Caco-2 cell monolayers = experiment: Caco-2 Permeability Assay; type: in vitro ADME; conditions: for Permeability Classification: absorption potential
Excerpt: Caco-2 cells are commonly used in a confluent monolayer on a cell culture insert filter. When cultured in this format and under specific conditions, the cells become differentiated and polarized such that their phenotype, morphologically and functionally resembles the enterocytes lining the small intestine. The cell monolayer provides a physical and biochemical barrier to the passage of small molecules, and is widely used across the pharmaceutical industry as an in vitro model of the human small intestinal mucosa to predict the absorption of orally administered drugs (Hidalgo et al., Gastroenterology, 1989; Artursson, J. Pharm. Sci., 1990). The correlation between the in vitro apparent permeability (P ? app) across Caco-2 monolayers and the in vivo absorption is well established (Artursson et al., Biochem. Biophys. Res. Comm., 1991).
The present assay was used to determine the bidirectional permeability of the compounds of the invention through Caco-2 cell monolayers. Caco-2 cells were grown in confluent monolayers where the media of both the apical (A) and basolateral (B) sides were at pH 7.4. Compounds were dosed at 1 μM in the presence of 200 μM Lucifer Yellow, on the apical side (A→B) or the basolateral side (B→A) for assessment, in duplicate.
The absorption potential of compounds were classified as either Low (P-app <1×10^−6 CM/S) or High (P-app >1×10^−6 CM/S).

[3] = target: T2, recombinant form of glutaminase (GAC Delta N2) (Homo sapiens, UniProt O94925); experiment: Modified Recombinant Enzyme Assay - Time Dependence; type: biochemical; conditions: 60 min preincubation
T2 sequence (O94925 137-598 isoform O94925-3 limits assumed): T1 sequence (O94925 137-598 isoform O94925-3 limits assumed)
Protocol: Compounds were assessed for their ability to inhibit the enzymatic activity of a recombinant form of glutaminase using a biochemical assay that couples the production of Glu (liberated by glutaminase) to GDH and measures the increase in fluorescence due to the reduction of NADP+ to NADPH.
3x-enzyme-containing solution was made by diluting recombinant glutaminase and GDH from Proteus species (Sigma Aldrich no. G4387) into glutaminase buffer to create a 6 nM glutaminase plus 18 units/mL GDH solution. […] When time-dependent effects of compound inhibition were tested, enzyme-containing solution was treated with inhibitor-containing solution for the indicated time prior to addition of substrate-containing solution.
IC50 Determination: The initial velocities of each progress curve were calculated using a straight line equation (Y=Yintercept+(slope)*X). Initial velocity values were plotted against compound concentration and fit to a four parameter dose response equation (% activity=Bottom+(Top−Bottom)/(1+10̂((LogIC50−X)*HillSlope))) to calculate an IC50 value.

Row | IC50 [3] [nM] | Compound | IC50 [2] [nM] | Significant Efflux (Caco-2 cell monolayers) | Permeability Classification (Caco-2 cell monolayers) | other results
1 |  | O=C(Cc1ccccc1)Nc1ccc(CCCCc2nnc(NC(=O)Cc3ccccc3)s2)nn1 [Compound 295] | 10 | Yes (efflux ratios being significant when greater than or equal to 3 when the Papp (B→A) was greater than or equal to 1×10^−6 cm/s) | High (High (P-app >1×10^−6 CM/S)) | IC50 [1]: 57 nM; IC50 (P493-6 (myc "on") cells): 39 nM
2 |  | O=C(Cc1ccccc1)Nc1ccc(CCCCc2nnc(NC(=O)C(O)c3cccc(Cl)c3)s2)nn1 (centres unmarked) [Compound 318] | 6 | Yes (efflux ratios being significant when greater than or equal to 3 when the Papp (B→A) was greater than or equal to 1×10^−6 cm/s) | High (High (P-app >1×10^−6 CM/S)) | IC50 [1]: 180 nM; IC50 (P493-6 (myc "on") cells): 17 nM
3 |  | CC(C)(C)OC(=O)NCc1cccc(CC(=O)Nc2nnc(CCCCc3ccc(NC(=O)Cc4ccccc4)nn3)s2)c1 [Compound 339] |  | Yes (efflux ratios being significant when greater than or equal to 3 when the Papp (B→A) was greater than or equal to 1×10^−6 cm/s) | High (High (P-app >1×10^−6 CM/S)) | IC50 (P493-6 (myc "on") cells): 9 nM
4 |  | O=C(Cc1ccccc1)Nc1ccc(CCCCc2nnc(NC(=O)Cc3ccccn3)s2)nn1 [Compound 354] |  | Yes (efflux ratios being significant when greater than or equal to 3 when the Papp (B→A) was greater than or equal to 1×10^−6 cm/s) | High (High (P-app >1×10^−6 CM/S)) | IC50 (P493-6 (myc "on") cells): 47 nM
5 |  | CC(C)(C)OC(=O)NCc1cccc(CC(=O)Nc2nnc(CCCCc3nnc(NC(=O)Cc4ccccc4)s3)s2)c1 [Compound 375] | 5 |  |  | IC50 [1]: 380 nM; IC50 (P493-6 (myc "on") cells): 41 nM
6 |  | CCOC(=O)NCc1cccc(CC(=O)Nc2nnc(CCCCc3ccc(NC(=O)Cc4ccccc4)nn3)s2)c1 [Compound 382] | 3 |  |  | IC50 [1]: 99 nM; IC50 (P493-6 (myc "on") cells): 7 nM
7 |  | CCOC(=O)NCc1cccc(CC(=O)Nc2ccc(CCCCc3nnc(NC(=O)Cc4ccccc4)s3)nn2)c1 [Compound 384] | 3 |  |  | IC50 [1]: 81 nM; IC50 (P493-6 (myc "on") cells): 5 nM
8 |  | CC(C(=O)Nc1ccc(CCCCc2nnc(NC(=O)Cc3cccc(CNC(=O)OC(C)(C)C)c3)s2)nn1)c1ccccc1 (centres unmarked) [Compound 436] |  | Yes (efflux ratios being significant when greater than or equal to 3 when the Papp (B→A) was greater than or equal to 1×10^−6 cm/s) | High (High (P-app >1×10^−6 CM/S)) | 
9 |  | O=C(Cc1cccc(OC(F)(F)F)c1)Nc1ccc(CCCCc2nnc(NC(=O)C(O)c3cccc(Cl)c3)s2)nn1 (centres unmarked) [Compound 447] | 5 | Yes (efflux ratios being significant when greater than or equal to 3 when the Papp (B→A) was greater than or equal to 1×10^−6 cm/s) | High (High (P-app >1×10^−6 CM/S)) | 
10 |  | O=C(Cc1ccccc1Cl)Nc1ccc(CCCCc2nnc(NC(=O)Cc3ccccc3F)s2)nn1 [Compound 533] |  | Yes (efflux ratios being significant when greater than or equal to 3 when the Papp (B→A) was greater than or equal to 1×10^−6 cm/s) | High (High (P-app >1×10^−6 CM/S)) | 
11 |  | O=C(Cc1cccc(OC(F)(F)F)c1)Nc1ccc(CCCCc2nnc(NC(=O)Cc3ccccc3)s2)nn1 [Compound 585] | 6 | Yes (efflux ratios being significant when greater than or equal to 3 when the Papp (B→A) was greater than or equal to 1×10^−6 cm/s) | High (High (P-app >1×10^−6 CM/S)) | 
12 |  | CC(C(=O)Nc1nnc(CCCCc2ccc(NC(=O)Cc3ccccc3)nn2)s1)c1ccccc1 (centres unmarked) [Compound 616] | 8 | Yes (efflux ratios being significant when greater than or equal to 3 when the Papp (B→A) was greater than or equal to 1×10^−6 cm/s) | High (High (P-app >1×10^−6 CM/S)) | 
13 |  | O=C(Cc1cccc(OC(F)(F)F)c1)Nc1ccc(CCCCc2nnc(NC(=O)Cc3cccc(OC(F)(F)F)c3)s2)nn1 [Compound 660] | 25 | Yes (efflux ratios being significant when greater than or equal to 3 when the Papp (B→A) was greater than or equal to 1×10^−6 cm/s) | Low (Low (P-app <1×10^−6 CM/S)) | 
14 |  | O=C(Cc1cccc(OC(F)(F)F)c1)Nc1ccc(CCCCc2nnc(NC(=O)Cc3ccccn3)s2)nn1 [Compound 670] |  | Yes (efflux ratios being significant when greater than or equal to 3 when the Papp (B→A) was greater than or equal to 1×10^−6 cm/s) | High (High (P-app >1×10^−6 CM/S)) | 
15 |  | O=C(Cc1cccc(OC(F)(F)F)c1)Nc1ccc(CCCCc2nnc(NC(=O)Cc3cccc(F)c3)s2)nn1 [Compound 679] |  | No | High (High (P-app >1×10^−6 CM/S)) | 
16 |  | O=C(Cc1cccc(OC(F)(F)F)c1)Nc1ccc(CCCCc2nnc(NC(=O)[C@@H](O)c3ccccc3)s2)nn1 [Compound 703] |  | Yes (efflux ratios being significant when greater than or equal to 3 when the Papp (B→A) was greater than or equal to 1×10^−6 cm/s) | High (High (P-app >1×10^−6 CM/S)) | 
17 |  | O=C(Cc1cccc(OC(F)(F)F)c1)Nc1ccc(CCCCc2nnc(NC(=O)[C@H](O)c3ccccc3)s2)nn1 [Compound 705] |  | Yes (efflux ratios being significant when greater than or equal to 3 when the Papp (B→A) was greater than or equal to 1×10^−6 cm/s) | High (High (P-app >1×10^−6 CM/S)) | 
18 | 190 | O=C(Cc1ccccn1)Nc1nnc(CCCCc2ccc(NC(=O)C(O)c3ccccc3)nn2)s1 (centres unmarked) [Compound 715] |  |  |  | 
19 | 34 | COc1ccc(OC(F)(F)F)cc1CC(=O)Nc1ccc(CCCCc2nnc(NC(=O)Cc3ccccn3)s2)nn1 [Compound 717] |  |  |  | 
20 | 26 | O=C(Cc1cc(OC(F)(F)F)ccc1O)Nc1ccc(CCCCc2nnc(NC(=O)Cc3ccccn3)s2)nn1 [Compound 718] |  |  |  | 
21 | 33 | O=C(Cc1ccc(F)c(OC(F)(F)F)c1)Nc1ccc(CCCCc2nnc(NC(=O)Cc3ccccn3)s2)nn1 [Compound 719] |  |  |  | 
22 | 20 | O=C(Cc1cc(OC(F)(F)F)ccc1F)Nc1ccc(CCCCc2nnc(NC(=O)Cc3ccccn3)s2)nn1 [Compound 720] |  |  |  | 
23 | 16 | O=C(Cc1ccc(Cl)c(OC(F)(F)F)c1)Nc1ccc(CCCCc2nnc(NC(=O)Cc3ccccn3)s2)nn1 [Compound 721] |  |  |  | 
24 | 24 | COc1ccc(CC(=O)Nc2ccc(CCCCc3nnc(NC(=O)Cc4ccccn4)s3)nn2)cc1OC(F)(F)F [Compound 722] |  |  |  | 
25 | 42 | O=C(Cc1ccc(O)c(OC(F)(F)F)c1)Nc1ccc(CCCCc2nnc(NC(=O)Cc3ccccn3)s2)nn1 [Compound 723] |  |  |  | 
26 | 140 | CC(C)(C)OC(=O)Nc1cccc(CC(=O)Nc2nnc(CCCCc3ccc(NC(=O)Cc4cccc(OC(F)(F)F)c4)nn3)s2)n1 [Compound 724] |  |  |  | 
27 | 50 | Nc1cccc(CC(=O)Nc2nnc(CCCCc3ccc(NC(=O)Cc4cccc(OC(F)(F)F)c4)nn3)s2)n1 [Compound 725] |  |  |  | 
28 | 12 | Cc1cccc(CC(=O)Nc2nnc(CCCCc3ccc(NC(=O)Cc4cccc(OC(F)(F)F)c4)nn3)s2)n1 [Compound 728] |  |  |  | 
29 | 16 | COc1cc(CC(=O)Nc2ccc(CCCCc3nnc(NC(=O)Cc4ccccn4)s3)nn2)cc(OC(F)(F)F)c1 [Compound 729] |  |  |  | 
30 | 13 | O=C(Cc1cc(O)cc(OC(F)(F)F)c1)Nc1ccc(CCCCc2nnc(NC(=O)Cc3ccccn3)s2)nn1 [Compound 730] |  |  |  | 
